Results from patent US6414036B1, “Composition for treatment of infections of humans and animals” (Van Beek Global/Ninkov LLC, priority 1999, dated 2002).

Test system: microorganism culture
Assay: Comparative testing: time to death of the culture after contact
Type: cell-based
Protocol: Isopropyl-o-cresol (95% purity) was obtained as described in Examples I and 2. A 50% solution of isopropyl-o-cresol was prepared by combining 50 grams of isopropyl-o-cresol with […] citric and propionic acid.
An antimicrobial compound containing isopropyl-o-cresol was prepared as described in Examples 3 and 4.
Each compound was administered to a culture of […]. Cell death was observed by monitoring whether or not the cells multiplied.
For example, when the microorganism culture was contacted with isopropyl-o-cresol alone the cells died within 6-8 hours after contact. When the microorganism culture was contacted with isopropyl-o-cresol combined with an organic acid to form a solution (without chemical modification of either species), the microorganisms died within 3-4 hours after exposure. When the microorganism culture was contacted with an antimicrobial compound containing isopropyl-o-cresol reacted with propionic and citric acids (50:50), the organisms died within 5-10 minutes after being contacted with the antimicrobial compound.

Row | Structure (SMILES) | time within which the organisms died after contact [min] | time within which the cells died after contact [h]
1 | CC(C)c1cc(CC(=O)O)cc(O)c1OC(=O)C(O)(CC(=O)O)CC(=O)O [3-{[4-(carboxymethyl)-2-hydroxy-6-isopropylphenoxy]carbonyl}-3-hydroxypentanedioic acid] | 5 to 10 | –
2 | Cc1ccc(C(C)C)cc1O [isopropyl-o-cresol, 5-isopropyl-2-methylphenol] | – | 6 to 8
